Measured values from patent publication US10975083B2, “Blood-brain barrier-penetrant dopamine-β-hydroxylase inhibitors” (BIAL—PORTELA & Cᵃ, S.A., priority 2016, dated 2021).
Marks after values point to notes of the source that are not given here.

Target: T1, Dopamine beta hydroxylase (Homo sapiens, UniProt P09172)
T1 construct: Human plasma samples were obtained from healthy donors; tissue Instituto Portugues do Sangue Transplantacao, Porto; host or cells: human plasma from healthy donors
T1 sequence (P09172 40-617 limits assumed): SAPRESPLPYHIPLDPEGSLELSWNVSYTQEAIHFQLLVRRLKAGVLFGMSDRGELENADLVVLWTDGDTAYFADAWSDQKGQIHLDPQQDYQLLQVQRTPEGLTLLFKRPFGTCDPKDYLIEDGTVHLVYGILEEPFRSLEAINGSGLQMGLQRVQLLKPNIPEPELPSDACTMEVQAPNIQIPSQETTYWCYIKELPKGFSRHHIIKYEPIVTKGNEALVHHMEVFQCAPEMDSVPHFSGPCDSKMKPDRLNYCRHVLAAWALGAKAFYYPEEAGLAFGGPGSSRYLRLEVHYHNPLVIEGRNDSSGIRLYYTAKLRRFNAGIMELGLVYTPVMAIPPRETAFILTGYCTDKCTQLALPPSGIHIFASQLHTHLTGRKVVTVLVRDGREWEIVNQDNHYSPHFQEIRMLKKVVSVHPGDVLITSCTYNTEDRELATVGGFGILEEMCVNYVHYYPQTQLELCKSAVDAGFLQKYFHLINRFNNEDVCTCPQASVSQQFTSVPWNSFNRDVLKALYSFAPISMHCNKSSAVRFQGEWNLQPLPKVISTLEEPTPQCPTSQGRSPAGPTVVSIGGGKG
Assay: DβH activity in human plasma
Format: biochemical
Settings: inhibitor 0.1 μM
Method: Furthermore, the ability of a compound to inhibit DβH activity may be assessed in human plasma using the following assay. […]. Dopamine beta hydroxylase activity in human plasma was measured by the method previously developed (Nagatsu, T. and Udenfriend, S. Photometric assay of dopamine-β-hydroxylase activity in human blood. Clin. Chem. 18(9) 980-983, 1972) with minor modifications. Catalase, N-ethylmaleimide, tyramine, disodium fumarate, pargyline, sodium acetate, ascorbic acid, copper sulfate and octopamine were obtained from Sigma Chemical Co., St. Louis, Mo. 63178. Human plasma samples were obtained from healthy donors (Instituto Portugues do Sangue Transplantacao, Centro Sangue Transplantacao, Porto, Portugal). From date of collection, plasma was stored at −80° C. until use. Test compounds were initially prepared in dimethyl sulfoxide at a concentration of 10 mM and diluted in dimethyl sulfoxide to the required concentrations. […] Absorbance was measured at […] in a 96-well plate by use of a SpectraMAX plus 384 (Molecular Devices) with software SOFTmax® PRO Software 5.3 spectrophotometer. Absorbance was linear with octopamine concentration from 0.5 to 20 μg/ml. Dopamine beta hydroxylase activity is determined as nmol of octopamine formed/ml of plasma/hour and effect of compounds is presented as % control. […]

Q: `Cc1[nH]c(=S)n2c1[C@@H]1C[C@]1(c1cc(Br)ccc1F)C2` [Example 122, (5aS,6aR)-5a-(5-bromo-2-fluorophenyl)-1-methyl-5,5a,6,6a-tetrahydrocyclopropa[3,4]pyrrolo[1,2-c]imidazole-3 (2H)-thione] was tested. Which “DβH activity in % of control in human plasma assay (numbers in brackets)” value did it give?
A: The value was “(9.8)* % of Ctrl”.
